# Reference: the NIST ThermoML archive (doi:10.1021/acs.jced.6b00430)
# Numbers after ± are expanded uncertainties.
# Assay: xn = mol fraction of the nth substance listed
# Conditions: 100 kPa, Liquid; for electrical conductivity: Alternating current cell with electrodes; for viscosity: Capillary tube (Ostwald / Ubbelohde) method; for mass density: Vibrating tube method
smiles,measurement,setting,value
O=[PH](O)O [phosphonic acid] + O,electrical conductivity,"298.15 K, x1 = 0.0122",7.43 ± 0.75 S/m
same,electrical conductivity,"298.15 K, x1 = 0.0215",10.4 ± 1 S/m
same,electrical conductivity,"298.15 K, x1 = 0.0299",13.4 ± 1.3 S/m
same,electrical conductivity,"298.15 K, x1 = 0.0403",16.9 ± 1.7 S/m
same,electrical conductivity,"298.15 K, x1 = 0.0484",18.5 ± 1.9 S/m
same,electrical conductivity,"298.15 K, x1 = 0.0541",20 ± 2 S/m
same,electrical conductivity,"298.15 K, x1 = 0.0682",22.1 ± 2.2 S/m
same,electrical conductivity,"298.15 K, x1 = 0.0704",22.4 ± 2.2 S/m
same,electrical conductivity,"298.15 K, x1 = 0.0799",23.9 ± 2.4 S/m
same,electrical conductivity,"298.15 K, x1 = 0.1011",25.9 ± 2.6 S/m
same,electrical conductivity,"298.15 K, x1 = 0.1335",26 ± 2.6 S/m
same,electrical conductivity,"298.15 K, x1 = 0.1689",25.7 ± 2.6 S/m
same,electrical conductivity,"298.15 K, x1 = 0.1909",25.2 ± 2.5 S/m
same,electrical conductivity,"298.15 K, x1 = 0.197",25 ± 2.5 S/m
same,electrical conductivity,"298.15 K, x1 = 0.2154",24.5 ± 2.5 S/m
same,electrical conductivity,"298.15 K, x1 = 0.2524",23.1 ± 2.3 S/m
same,electrical conductivity,"298.15 K, x1 = 0.292",20.7 ± 2.1 S/m
same,electrical conductivity,"298.15 K, x1 = 0.3959",15.4 ± 1.5 S/m
same,viscosity,"298.15 K, x1 = 0.0122",0.962 ± 0.058 mPa·s
same,viscosity,"298.15 K, x1 = 0.0215",1.05 ± 0.06 mPa·s
same,viscosity,"298.15 K, x1 = 0.0299",1.17 ± 0.07 mPa·s
same,viscosity,"298.15 K, x1 = 0.0704",1.64 ± 0.1 mPa·s
same,viscosity,"298.15 K, x1 = 0.1011",2.06 ± 0.12 mPa·s
same,viscosity,"298.15 K, x1 = 0.1335",2.6 ± 0.16 mPa·s
same,viscosity,"298.15 K, x1 = 0.2154",4.24 ± 0.26 mPa·s
same,viscosity,"298.15 K, x1 = 0.2524",5.19 ± 0.31 mPa·s
same,viscosity,"298.15 K, x1 = 0.292",6.26 ± 0.38 mPa·s
same,mass density,"298.15 K, x1 = 0.0122",1022.04 ± 10 kg/m3
same,mass density,"298.15 K, x1 = 0.0215",1039.69 ± 10 kg/m3
same,mass density,"298.15 K, x1 = 0.0299",1055.02 ± 10 kg/m3
same,mass density,"298.15 K, x1 = 0.0403",1073.24 ± 10 kg/m3
same,mass density,"298.15 K, x1 = 0.0451",1081.91 ± 10 kg/m3
same,mass density,"298.15 K, x1 = 0.0484",1087.03 ± 10 kg/m3
same,mass density,"298.15 K, x1 = 0.0541",1096.6 ± 10 kg/m3
same,mass density,"298.15 K, x1 = 0.0682",1119.23 ± 10 kg/m3
same,mass density,"298.15 K, x1 = 0.0704",1122.59 ± 10 kg/m3
same,mass density,"298.15 K, x1 = 0.0799",1137.16 ± 10 kg/m3
same,mass density,"298.15 K, x1 = 0.0832",1141.9 ± 10 kg/m3
same,mass density,"298.15 K, x1 = 0.1011",1167.81 ± 10 kg/m3
same,mass density,"298.15 K, x1 = 0.1335",1210.62 ± 10 kg/m3
same,mass density,"298.15 K, x1 = 0.1689",1252.12 ± 10 kg/m3
same,mass density,"298.15 K, x1 = 0.1909",1275.45 ± 10 kg/m3
same,mass density,"298.15 K, x1 = 0.197",1281.23 ± 10 kg/m3
same,mass density,"298.15 K, x1 = 0.2154",1299.73 ± 10 kg/m3
same,mass density,"298.15 K, x1 = 0.2524",1332.1 ± 10 kg/m3
same,mass density,"298.15 K, x1 = 0.292",1363.42 ± 10 kg/m3
same,mass density,"298.15 K, x1 = 0.3959",1434.35 ± 10 kg/m3
same,electrical conductivity,"308.15 K, x1 = 0.0122",7.89 ± 0.79 S/m
same,electrical conductivity,"308.15 K, x1 = 0.0215",11.3 ± 1.1 S/m
same,electrical conductivity,"308.15 K, x1 = 0.0299",14.3 ± 1.4 S/m
same,electrical conductivity,"308.15 K, x1 = 0.0403",18.4 ± 1.8 S/m
same,electrical conductivity,"308.15 K, x1 = 0.0484",20 ± 2 S/m
same,electrical conductivity,"308.15 K, x1 = 0.0541",21.3 ± 2.1 S/m
same,electrical conductivity,"308.15 K, x1 = 0.0682",23.9 ± 2.4 S/m
same,electrical conductivity,"308.15 K, x1 = 0.0704",24.2 ± 2.4 S/m
same,electrical conductivity,"308.15 K, x1 = 0.0799",25.5 ± 2.6 S/m
same,electrical conductivity,"308.15 K, x1 = 0.1011",27.4 ± 2.7 S/m
same,electrical conductivity,"308.15 K, x1 = 0.1335",28.6 ± 2.9 S/m
same,electrical conductivity,"308.15 K, x1 = 0.1689",28.5 ± 2.9 S/m
same,electrical conductivity,"308.15 K, x1 = 0.1909",28.5 ± 2.9 S/m
same,electrical conductivity,"308.15 K, x1 = 0.197",28 ± 2.8 S/m
same,electrical conductivity,"308.15 K, x1 = 0.2154",28 ± 2.8 S/m
same,electrical conductivity,"308.15 K, x1 = 0.2524",25.8 ± 2.6 S/m
same,electrical conductivity,"308.15 K, x1 = 0.292",23.9 ± 2.4 S/m
same,electrical conductivity,"308.15 K, x1 = 0.3959",18.5 ± 1.9 S/m
same,viscosity,"308.15 K, x1 = 0.0122",0.782 ± 0.047 mPa·s
same,viscosity,"308.15 K, x1 = 0.0215",0.852 ± 0.051 mPa·s
same,viscosity,"308.15 K, x1 = 0.0299",0.94 ± 0.057 mPa·s
same,viscosity,"308.15 K, x1 = 0.0704",1.31 ± 0.08 mPa·s
same,viscosity,"308.15 K, x1 = 0.1011",1.65 ± 0.1 mPa·s
same,viscosity,"308.15 K, x1 = 0.1335",2.08 ± 0.13 mPa·s
same,viscosity,"308.15 K, x1 = 0.2154",3.32 ± 0.2 mPa·s
same,viscosity,"308.15 K, x1 = 0.2524",4.12 ± 0.25 mPa·s
same,viscosity,"308.15 K, x1 = 0.292",4.94 ± 0.3 mPa·s
same,mass density,"308.15 K, x1 = 0.0122",1018.53 ± 10 kg/m3
same,mass density,"308.15 K, x1 = 0.0215",1035.86 ± 10 kg/m3
same,mass density,"308.15 K, x1 = 0.0299",1050.95 ± 10 kg/m3
same,mass density,"308.15 K, x1 = 0.0403",1068.89 ± 10 kg/m3
same,mass density,"308.15 K, x1 = 0.0451",1077.48 ± 10 kg/m3
same,mass density,"308.15 K, x1 = 0.0484",1082.48 ± 10 kg/m3
same,mass density,"308.15 K, x1 = 0.0541",1091.91 ± 10 kg/m3
same,mass density,"308.15 K, x1 = 0.0682",1114.22 ± 10 kg/m3
same,mass density,"308.15 K, x1 = 0.0704",1117.57 ± 10 kg/m3
same,mass density,"308.15 K, x1 = 0.0799",1131.9 ± 10 kg/m3
same,mass density,"308.15 K, x1 = 0.0832",1136.63 ± 10 kg/m3
same,mass density,"308.15 K, x1 = 0.1011",1162.2 ± 10 kg/m3
same,mass density,"308.15 K, x1 = 0.1335",1204.48 ± 10 kg/m3
same,mass density,"308.15 K, x1 = 0.1689",1245.45 ± 10 kg/m3
same,mass density,"308.15 K, x1 = 0.1909",1268.54 ± 10 kg/m3
same,mass density,"308.15 K, x1 = 0.197",1274.31 ± 10 kg/m3
same,mass density,"308.15 K, x1 = 0.2154",1292.62 ± 10 kg/m3
same,mass density,"308.15 K, x1 = 0.2524",1324.67 ± 10 kg/m3
same,mass density,"308.15 K, x1 = 0.292",1355.74 ± 10 kg/m3
same,mass density,"308.15 K, x1 = 0.3959",1426.18 ± 10 kg/m3
same,electrical conductivity,"318.15 K, x1 = 0.0122",8.18 ± 0.82 S/m
same,electrical conductivity,"318.15 K, x1 = 0.0215",11.8 ± 1.2 S/m
same,electrical conductivity,"318.15 K, x1 = 0.0299",15 ± 1.5 S/m
same,electrical conductivity,"318.15 K, x1 = 0.0403",19.2 ± 1.9 S/m
same,electrical conductivity,"318.15 K, x1 = 0.0484",20.9 ± 2.1 S/m
same,electrical conductivity,"318.15 K, x1 = 0.0541",22.4 ± 2.2 S/m
same,electrical conductivity,"318.15 K, x1 = 0.0682",25.4 ± 2.5 S/m
same,electrical conductivity,"318.15 K, x1 = 0.0704",25.8 ± 2.6 S/m
same,electrical conductivity,"318.15 K, x1 = 0.0799",27.3 ± 2.7 S/m
same,electrical conductivity,"318.15 K, x1 = 0.1011",29.7 ± 3 S/m
same,electrical conductivity,"318.15 K, x1 = 0.1335",31.3 ± 3.1 S/m
same,electrical conductivity,"318.15 K, x1 = 0.1689",31.5 ± 3.2 S/m
same,electrical conductivity,"318.15 K, x1 = 0.1909",31.2 ± 3.1 S/m
same,electrical conductivity,"318.15 K, x1 = 0.197",30.8 ± 3.1 S/m
same,electrical conductivity,"318.15 K, x1 = 0.2154",30 ± 3 S/m
same,electrical conductivity,"318.15 K, x1 = 0.2524",28.8 ± 2.9 S/m
same,electrical conductivity,"318.15 K, x1 = 0.292",27.2 ± 2.7 S/m
same,electrical conductivity,"318.15 K, x1 = 0.3959",21.1 ± 2.1 S/m
same,viscosity,"318.15 K, x1 = 0.0122",0.636 ± 0.038 mPa·s
same,viscosity,"318.15 K, x1 = 0.0215",0.689 ± 0.042 mPa·s
same,viscosity,"318.15 K, x1 = 0.0299",0.754 ± 0.046 mPa·s
same,viscosity,"318.15 K, x1 = 0.0704",1.06 ± 0.06 mPa·s
same,viscosity,"318.15 K, x1 = 0.1011",1.32 ± 0.08 mPa·s
